Measurements reported in patent US8252832B2, “Kinesin inhibitors as cancer therapeutics” (Novartis AG, priority 2007, dated 2012).
Several values for one entry are separate records, joined by “and”; a condition that tells them apart may be missing. Equal values may be shown once. Marks after values point to notes of the source that are not given here.

Columns and labels:
Type in all cases: in vivo, mouse
[1] = HCT15 tumor xenograft model, host response
Experimental: Routine animal care and assurance of welfare were as described above.
Treatments for the efficacy studies were initiated 10 days following tumor cell implantation when tumors were approximately 300 mm^3. Compound IIa and SB-715992 were administered intravenously (i.v.) via the tail vein in a volume of 8 mL/kg at the doses indicated. Paclitaxel was administered intraperitoneally (i.p.) in a volume of 16 mL/kg at 30 mg/kg.
Tumor volume was calculated as (L×W2)/2. […] Data was analyzed as described above.

[2] = tested on: human multiple myeloma KMS-11-luc tumor xenografts; assay: Subcutaneous KMS-11-luc tumor xenograft model, tumor response
Experimental: (§1) Experiments were performed using immunodeficient SCID-Beige female mice approximately 7-8 weeks old (Charles River Laboratories, Wilmington, Mass.). […] Routine animal care and assurance of welfare were as described above.
Human KMS-11-luc multiple myeloma cells were obtained from the laboratory of Suzanne Trudel at the University of Toronto (Ontario, Canada) and tested to be free of Mycoplasma sp. and murine viruses in the IMPACT1 PCR assay panel (RADIL, University of Missouri, Columbia, Mo.). Prior to our receiving this cell line, it had been stably engineered to express luciferase by retroviral transfection of the pGC-gfp/luc vector. KMS-11-luc cells were grown in Iscove's medium supplemented with 2 mmol/L L-glutamine (Mediatech, Inc., Hemdon, Va.) and 10% fetal bovine serum (JRH Biosciences, catalog #12003-1000M). These cells were grown as suspension cultures, maintained at 37° C. in a humidified atmosphere containing 5% carbon dioxide. Cells were cultured for fewer than 10 passages prior to use. Cells were harvested at approximately 2 million cells/mL, and centrifuged at ˜800×g for 5 minutes at 4° C. and then resuspended in a 1:1 mixture of cold Hank's balanced salt solution (HBSS) and Matrigel™ (Mediatech Inc., catalog #21-021-CV; BD Biosciences, catalog #354234, respectively) at a concentration of 50 million cells/mL for implantation subcutaneously (injection volume of 0.2 mL). Alternatively, for the disseminated disease model, cells were prepared only in cold HBSS at a concentration of 100 million cells/mL for intravenous (i.v.) implantation via the tail vein (injection volume of 0.1 mL).
(§2) Compound IIa and SB-715992 (free base) were formulated in 20% Captisol for a dose volume of 8 mL/kg. Doses were adjusted to each animal's body weight.
(§3) For the efficacy evaluation in the subcutaneous tumor model, 10 million cells combined in a 1:1 mixture of HBSS and Matrigel™ were injected subcutaneously in the right flank in a total volume of […]. […] Tumor volume was calculated as (L×W2)/2. […] Data analysis was as described above.

[3] = HCT116 tumor xenograft model, host response (body weight, survival, neutrophils); settings: q4d × 3; for Neutrophils/ul 72 h post-dose +/− S.D.: 72 h after last dose
Experimental: The cell line HCT-116 has been widely used in the evaluation of mitotic inhibitors such as microtubule disruptors, mitotic kinase inhibitors and KSP inhibitors. A multi-dose efficacy study on a […] (q4d×3) dosing schedule was performed. Experiments were performed using outbred athymic nu/nu mice approximately 6-8 weeks old (Charles River Laboratories, Hollister, Calif.). […] Mice were housed 4-5 animals per cage in clear polycarbonate micro-isolator cages with a 12-hour light, 12-hour dark cycle at temperatures between 70-80 degrees Fahrenheit and 30-70% relative humidity. Food (Purina rodent chow pellets) and water were provided ad libitum. Mice were handled in accordance with Novartis ACUC regulations and guidelines and the ILAR Guide for the Care and Use of Laboratory Animals. Experiments were performed in an AAALAC accredited facility under an ACUC approved protocol.
Compound IIa (free base) and SB-715992 (ispinesib, a KSP inhibitor by Cytokinetics that is in clinical trials; as its free base) were formulated in 20% Captisol® for all the above doses for a dose volume of 8 mL/kg. Doses were adjusted to each animal's body weight.
Female nu/nu mice (Charles River, Hollister, Calif.) were injected subcutaneously in the right flank with 5 million HCT-116 tumor cells suspended in Hank's Balanced Salt Solution (HBSS) in a total volume of 0.1 mL/mouse. For the efficacy studies, mice were randomized 10 days post-implant. […] Tumor volume was calculated as (L×W2)/2. […] Percent treatment/control (T/C) values were calculated using the following formula: % T/C=100×ΔT/ΔC
Since a dose as low as 1.25 mg/kg on a q4d×3 schedule induced regression of HCT116 xenografts, the efficacy study was repeated with a range of doses from 2 to 0.125 mg/kg to observe a dose response and determine how low a dose can be given to induce tumor regression. […] Only the 7.5 mg/kg dose of SB-715992 induced tumors to regress. Additionally, 72 hrs after the last dose, blood was collected to compare the circulating neutrophil levels among groups. Neutrophils were reduced in a dose responsive manner, similar to the tumor efficacy effect.

[4] = Subcutaneous KMS-11-luc tumor xenograft model, host response
Experimental: as §1, §2, §3

## CC(C)(C)[C@H](c1nc(-c2cc(F)ccc2F)cn1Cc1ccccc1)N(CC[C@H](N)CF)C(=O)CO [Compound IIa]
[1]; 1.25 mg/kg, q4d × 3, i.v
  Survival (alive/total): 9/9
[1]; 2.5 mg/kg, q4d × 3, i.v
  Survival (alive/total): 9/9
[1]; 4.0 mg/kg, q4d × 3, i.v
  Survival (alive/total): 9/9
[2]; 0.25 mg/kg, Q4d × 3, i.v
  T/C, Day 31 (%): 25%
  Δ Tumor volume, Day 31: 527 ± 152 mm^3
[2]; 0.25 mg/kg, Q4d × 3, i.v, D7
  Max. % Regression (Day): 24 (D7) %
[2]; 0.5 mg/kg, Q4d × 3, i.v
  T/C, Day 31 (%): 10%
  Δ Tumor volume, Day 31: 221 ± 71 mm^3
[2]; 0.5 mg/kg, Q4d × 3, i.v, D10
  Max. % Regression (Day): 42 (D10) %
[2]; 1 mg/kg, Q4d × 3, i.v
  T/C, Day 31 (%): 0.1* %
  Δ Tumor volume, Day 31: 1.5 ± 26 mm^3
[2]; 1 mg/kg, Q4d × 3, i.v, D17, listed as COMPOUND IIa
  Max. % Regression (Day): 56 (D17) %
[2]; 1 mg/kg, Q4d × 3, i.v, D17, listed as compound IIa
  Max. % Regression (Day): 56%
[3]; 0.125 mg/kg, i.v.
  Survival (alive/total): 9/9
[3]; 0.25 mg/kg, i.v.
  Survival (alive/total): 9/9
[3]; 0.5 mg/kg, i.v.
  Survival (alive/total): 9/9
[3]; 1 mg/kg, i.v.
  Survival (alive/total): 9/9
[3]; 1.25 mg/kg, i.v.
  Survival (alive/total): 9/9
[3]; 2 mg/kg, i.v., (body weight loss)
  Survival (alive/total): 8/9 (body
[3]; 2.5 mg/kg, i.v.
  Survival (alive/total): 9/9
[3]; 5 mg/kg, i.v., (body weight loss)
  Survival (alive/total): 8/9 (body
[4]; 0.25 mg/kg, Q4d × 3, i.v
  Survival (alive/total): 9/9
[4]; 0.5 mg/kg, Q4d × 3, i.v
  Survival (alive/total): 9/9
[4]; 1 mg/kg, Q4d × 3, i.v
  Survival (alive/total): 8/9

## CC(=O)O[C@H]1C(=O)[C@@]2(C)[C@H]([C@H](OC(=O)c3ccccc3)[C@]3(O)C[C@H](OC(=O)[C@H](O)[C@@H](NC(=O)c4ccccc4)c4ccccc4)C(C)=C1C3(C)C)[C@]1(OC(C)=O)CO[C@@H]1C[C@@H]2O [Paclitaxel, reference compound]
[1]; 30 mg/kg, Q4d × 3, i.p.
  Survival (alive/total): 9/9
[2]; 30 mg/kg, Q4d × 3, i.p.
  T/C, Day 31 (%): 30%
  Δ Tumor volume, Day 31: 640 ± 190 mm^3
[2]; 30 mg/kg, Q4d × 3, i.p., D3
  Max. % Regression (Day): 5 (D3) %
[3]; 30 mg/kg, i.p.
  Survival (alive/total): 9/9
[4]; 30 mg/kg, Q4d × 3, i.p.
  Survival (alive/total): 9/9

## Cc1ccc(C(=O)N(CCCN)[C@@H](c2nc3cc(Cl)ccc3c(=O)n2Cc2ccccc2)C(C)C)cc1 [SB-715992, Ispinesib, reference compound]
[1]; 7.5 mg/kg, q4d × 3, i.v
  Survival (alive/total): 9/9
[1]; 7.5 mg/kg, q4d × 3, i.v, D8
  Max. Δ body weight (Day): 0.6 ± 0.2 g
  Max. Δ body weight (Day) (%): 2.6 ± 1.0%
[1]; 15 mg/kg, q4d × 3, i.v.
  Survival (alive/total): 9/9
[1]; 15 mg/kg, q4d × 3, i.v, D10
  Max. Δ body weight (Day): -1.2 ± 0.4 g
[2]; 7.5 mg/kg, Q4d × 3, i.v.
  Δ Tumor volume, Day 31: −46 ± 19 mm^3
[2]; 7.5 mg/kg, Q4d × 3, i.v., D14
  Max. % Regression (Day): 49% and 49, (D14) %
[3]; 1.75 mg/kg, i.v.
  Survival (alive/total): 9/9
  Neutrophils/ul 72 h post-dose +/− S.D.: 1026 ± 229 µL⁻¹
[3]; 1.75 mg/kg, i.v., D3
  Max. Δ body weight (Day): -0.6 ± 0.58 g
  Max. Δ body weight (Day) (%): −2.3 ± 0.51%
[3]; 3.5 mg/kg, i.v.
  Survival (alive/total): 9/9
  Neutrophils/ul 72 h post-dose +/− S.D.: 731 ± 391 µL⁻¹
[3]; 3.5 mg/kg, i.v., D3
  Max. Δ body weight (Day): -0.5 ± 0.37 g
  Max. Δ body weight (Day) (%): −2.0 ± 0.44%
[3]; 3.5 mg/kg, i.v., D4
  Max. Δ body weight (Day): -0.7 ± 0.05 g
  Max. Δ body weight (Day) (%): −2.7 ± 0.17%
[3]; 7.5 mg/kg, i.v.
  Survival (alive/total): 9/9
  Neutrophils/ul 72 h post-dose +/− S.D.: 476 ± 112 µL⁻¹
[3]; 7.5 mg/kg, i.v., D4
  Max. Δ body weight (Day): -0.3 ± 0.05 g
  Max. Δ body weight (Day) (%): −1.3 ± 0.25%
[3]; 7.5 mg/kg, i.v., D10
  Max. Δ body weight (Day): -0.7 ± 1.1 g
  Max. Δ body weight (Day) (%): −3.0 ± 2.49%
[3]; 15 mg/kg, i.v.
  Survival (alive/total): 9/9
[3]; 15 mg/kg, i.v., D7
  Max. Δ body weight (Day): -2.5 ± 0.2 g
  Max. Δ body weight (Day) (%): −10.6 ± 0.75%
[4]; 7.5 mg/kg, Q4d × 3, i.v.
  Survival (alive/total): 9/9
[4]; 7.5 mg/kg, Q4d × 3, i.v., D10
  Max. Δ body weight (Day): -0.96 ± 0.31 g
  Max. Δ body weight (Day) (%): −4.8 ± 1.93%
